Where a name gives a salt, the structure may show the parent alone.
How the values were obtained:
M. smegmatis mc^2155 = format: cell-based, Mycobacterium smegmatis
E. coli BL21 = assay: Antibiotic gradient plate susceptibility of E. coli transformants with plasmids bearing E. coli mar genes; format: cell-based, Escherichia coli
Text: PCR oligonucleotide primers were used to prepare a wild-type marA amplicon from E. coli AG100 (A. M. George, et al, J. Bacteriol., 1983, 155:531-540) chromosomal DNA, based on the annotated sequence (S. P. Cohen, et al. J. Bacteriol., 1993, 175:1484-1492). The oligonucleotide primers corresponded with nucleotide positions 1893 to 1910 and 2265 to 2282 and contained terminal EcoRI restriction enzyme sites to allow insertion of marA in frame with the hsp60 mycobacterial heat shock promoter resident on the E. coli-Mycobacterium shuttle plasmid pMV261 (W. R. Jacobs, et al. Microbiol. Immunol., 1990, 155:153-160). […] These mutant marA genes were ligated to pMV261 and pET13a for testing in M. smegmatis and E. coli, respectively. Plasmids were introduced into E. coli and M. smegmatis mc^2155 by electroporation with a Gene Pulser transfection apparatus (Bio-Rad. Richmond, Calif.) and selected on kanamycin (10 or 25 μg/ml).
To obtain support for the notion that the resistance phenotype was a direct result of MarA activity in the cell, insertional mutants targeted to the first helix-turn-helix domain (HTH1) (M. N. Alekshun, et al. Chemother, 41:2067-2075) of the MarA protein were constructed. […] A double-stranded synthetic oligonucleotide with compatible ends was ligated to the NheI sites to produce two distinct insertional mutants interrupting each of the two putative alpha-helical regions (FIG. 1). These mutated genes were cloned into pMV261, as described above, for susceptibility testing in M. smegmatis at 37° C. They were also expressed from the isopropyl-β-D-thiogalactopyranoside (IPTG)-regulated T7 promoter resident on plasmid pET13a for testing in E. coli BL21 (Studier et al. 1990. Methods Enzymol. 185:60). Insertional inactivation of MarA at either helix A or helix B of the first HTH abolished the multidrug resistance phenotype in both E. coli and M. smegmatis the (Table 3 and 4).

[1] = transformant pEC10 (pET13::marA), same gradients
[2] = transformant pET13a (vector), gradient (µg/ml) CML 2.0, TET 1.0, AMP 3.0, NAL 1.0

Row | Compound | resistance compared to the microbe with vector alone (M. smegmatis mc^2155) | change in susceptibility in the presence of marA (M. smegmatis mc^2155) | % Gowth in antibiotic gradient (E. coli BL21; [1]) | % Gowth in antibiotic gradient (E. coli BL21; [2]) | further results
1 | CC[C@@H](CO)NCCN[C@@H](CC)CO [ETM, ethambutol] | increased resistance |  |  |  | fold increase of resistance in the presence of marA (M. smegmatis mc^2155): 1.5 fold
2 | [H]/N=C(/N)N[C@H]1[C@H](O)[C@@H](O)[C@H](O[C@@H]2O[C@@H](C)[C@](O)(C=O)[C@H]2O[C@@H]2O[C@@H](CO)[C@H](O)[C@@H](O)[C@@H]2NC)[C@@H](N/C(N)=N\[H])[C@@H]1O [streptomycin, streptomycin sulfate] |  | some increased susceptibility |  |  | 
3 | CCn1cc(C(=O)O)c(=O)c2ccc(C)nc21 [NAL, nalidixic acid] |  | Little if any change in susceptibility | 100% | 17 ± 0.8% | 
4 | CC1(C)S[C@@H]2[C@H](NC(=O)[C@H](N)c3ccccc3)C(=O)N2[C@H]1C(=O)O [AMP, ampicillin] |  |  | 11 ± 2.0% | 2 ± 1.1% | 
5 | CO[C@H]1/C=C/O[C@@]2(C)Oc3c(C)c(O)c4c(O)c(c(/C=N/N5CCN(C)CC5)c(O)c4c3C2=O)NC(=O)/C(C)=C\C=C\[C@H](C)[C@H](O)[C@@H](C)[C@@H](O)[C@@H](C)[C@H](OC(C)=O)[C@@H]1C [RIF, rifampin] | Increased resistance |  |  |  | resistance in the presence of vector alone (M. smegmatis mc^2155): increased
6 | C[C@@H]1CN(c2c(F)c(N)c3c(=O)c(C(=O)O)cn(C4CC4)c3c2F)C[C@H](C)N1 [sparfloxacin] |  | Little if any change in susceptibility |  |  | 
7 | CN(C)[C@@H]1C(O)=C(C(N)=O)C(=O)[C@@]2(O)C(O)=C3C(=O)c4c(O)cccc4[C@@](C)(O)[C@H]3C[C@@H]12 [TET, tetracycline] |  |  | 100% | 33 ± 1.0% | % Gowth in antibiotic gradient (E. coli BL21; {}): 33 ± 1.4%
8 | NNC(=O)c1ccncc1 [INH, isoniazid] | increased resistance |  |  |  | fold increase of resistance in the presence of marA (M. smegmatis mc^2155): 2.5 fold
9 | COS(=O)(=O)[O-].C[n+]1c2ccccc2nc2ccccc21 [phenazine methosulfate] |  | Little if any change in susceptibility |  |  | 
10 | O=C(N[C@H](CO)[C@H](O)c1ccc([N+](=O)[O-])cc1)C(Cl)Cl [CML, chloramphenicol] | increased resistance |  | 100% | 20 ± 1.1% | fold increase of resistance in the presence of marA (M. smegmatis mc^2155): two-fold
11 | CCn1cc(C(=O)O)c(=O)c2cc(F)c(N3CCNCC3)cc21 [Nor, norfloxacin] |  | some increased susceptibility |  |  | 
